Legend:
[1] = test system: post-surgery recurrence of non-small cell lung cancer; experiment: Case of a patient with post-surgery recurrence of non-small cell lung cancer (Example 3); assay type: in vivo, human; details: Bestatin 10 mg/day alone every day from Jan-14
Description: The non-small cell lung cancer patient received lung right upper lobectomy, then immunotherapy, but enlargement of the right cervical lymph node was confirmed (September 2012 (Sep-12)). Subsequently, the elevation of CEA levels in peripheral blood was confirmed.
Starting in January 2014 (Jan-14), Bestatin (10 mg/day) was administered alone every day.

[2] = test system: post-surgery liver metastasis of colorectal cancer; experiment: Case of a terminal colorectal cancer patient with post-surgery liver metastasis (Example 1); assay type: in vivo, human
Description: Post-surgery liver metastasis was confirmed in the terminal colorectal cancer patient.
Starting in March 2014 (Mar-14), Bestatin […]) was administered alone every day.

[3] = test system: A549 human lung carcinoma; experiment: Antitumor effect of Bestatin and gefitinib in A549 cancer-bearing mice (Example 15); assay type: in vivo, BALB/c nu/nu mice; details: po, qd, 6 days/week x 3 weeks
Description: • [1] Production of Cancer-Bearing Mouse
A549 human lung carcinoma suspension (5×10^6 cells/100 μL PBS) was subcutaneously inoculated to BALB/c nu/nu mice (female). After cells were transplanted, mice with a tumor volume reaching about 117 mm^3 (on day 15 after the cell transplantation) were used for the following in vivo experiments, • [2] Evaluation of Antitumor Effects Attained by Combination of Bestatin and Gefitinib
Bestatin and gefitinib were respectively administered by the following doses, administration route and schedule to the above A549 cancer-bearing mice.
The antitumor effect was examined based on changes in tumor volume and changes in body weight.
The tumor volume was calculated by the following formula.
Tumor volume (mm^3)=(long side of tumor)×(short side of tumor)^2×0.5
Tumor growth inhibition (TGI) was also calculated from the tumor volume by the following formula.

[4] = test system: post-surgery multiple lung metastases of thyroid gland cancer; experiment: Case of a patient with post-surgery multiple lung metastases of thyroid gland cancer (Example 2); assay type: in vivo, human
Description: Multiple lung metastases were confirmed in a thyroid gland cancer patient and the platelet count and the neutrophil count in peripheral blood both increased. In December 2013 (Dec-13), the […] to neutrophil count ratio (NLR) in peripheral blood was more than 5, indicating poor prognosis.
Starting in March 2014 (Mar-14), Bestatin (10 mg/day) was administered alone every day.

[5] = Bestatin 10 mg/day alone every day from Mar-14
[6] = Bestatin 10 mg/day alone every day, May-14, two months after start

SMILES	CEA level in peripheral blood [1]	platelet count in peripheral blood [2, 5]	tumor marker CA19-9 level in peripheral blood [2, 6]	tumor marker CEA level in peripheral blood [2, 6]	CEA level after Bestatin administration was stopped ([2]; administration stopped Jul-14)	platelet count in peripheral blood after Bestatin administration was stopped ([2]; administration stopped Jul-14)	TGI (%) On day 40 ([3]; G3: Bestatin 30 mg/kg alone)	Lymphocyte in peripheral blood ([4]; 2014 Jul. 15 (After administration), Bestatin 10 mg/day alone, before administration 8%)	Neutrophil in peripheral blood ([4]; 2014 Jul. 15 (After administration), Bestatin 10 mg/day alone, before administration 83%)	Leukocyte in peripheral blood ([4]; 2014 Jul. 15 (After administration), Bestatin 10 mg/day alone, before administration (2014 Jan. 10) 9500)	neutrophil count in peripheral blood [4, 5]	platelet count in peripheral blood [4, 5]	TGI (%) On day 40 ([3]; G2: gefitinib 10 mg/kg alone)
CC(C)C[C@H](NC(=O)[C@@H](O)[C@H](N)Cc1ccccc1)C(=O)O [Bestatin, (2S)-2-[(2S,3R)-3-amino-2-hydroxy-4-phenylbutanoylamino]-4-methylpentanoic acid]	drop	started decreasing	started decreasing	started decreasing	quickly elevated again	quickly elevated again	39%	22%	55%	4900	drops	drops	–
COc1cc2ncnc(Nc3ccc(F)c(Cl)c3)c2cc1OCCCN1CCOCC1 [gefitinib]	–	–	–	–	–	–	–	–	–	–	–	–	31%
